According to the NIST ThermoML archive (doi:10.1021/je300633e):
Numbers after ± are expanded uncertainties.

Assays:
[1] = mn = molality of the nth substance listed, in mol/kg; settings: 298.15 K, 101 kPa, Liquid, Vibrating tube method
[2] = refractive index (Na D-line) (dimensionless); mn = molality of the nth substance listed, in mol/kg; settings: 298.15 K, 101 kPa, Liquid, Standard Abbe refractometry

OC[C@@H](O)[C@@H](O)[C@H](O)[C@H](O)CO [D-mannitol] + O showed a mass density ([1]; m1 = 0.1) of 1003.27 ± 1 kg/m3, a mass density ([1]; m1 = 0.2) of 1009.2 ± 1 kg/m3 and a mass density ([1]; m1 = 0.3) of 1015.29 ± 1 kg/m3. For the same molecule, the mass density ([1]; m1 = 0.5) was 1026.51 ± 1 kg/m3, the mass density ([1]; m1 = 0.7) was 1037.43 ± 1 kg/m3 and the mass density ([1]; m1 = 0.9) was 1047.8 ± 1 kg/m3. The refractive index ([2]; m1 = 0.1) was 1.3349 ± 0.0009, the refractive index ([2]; m1 = 0.2) was 1.3367 ± 0.0009 and the refractive index ([2]; m1 = 0.3) was 1.3398 ± 0.0009. The refractive index ([2]; m1 = 0.5) was 1.344 ± 0.0009, the refractive index ([2]; m1 = 0.7) was 1.349 ± 0.0009 and the refractive index ([2]; m1 = 0.9) was 1.3532 ± 0.0009.

Work on CC(=O)NCCCCCCNC(C)=O [N,N'-diacetyl-1,6-hexanediamine] + O yielded a mass density ([1]; m1 = 0.1) of 997.981 ± 1.1 kg/m3, a mass density ([1]; m1 = 0.15) of 998.443 ± 1.1 kg/m3 and a mass density ([1]; m1 = 0.2) of 998.931 ± 1.1 kg/m3. It also gave a mass density ([1]; m1 = 0.25) of 999.413 ± 1.1 kg/m3, a mass density ([1]; m1 = 0.3) of 999.901 ± 1.1 kg/m3 and a mass density ([1]; m1 = 0.35) of 1000.37 ± 1.1 kg/m3. It also gave a mass density ([1]; m1 = 0.4) of 1000.88 ± 1.1 kg/m3, a refractive index ([2]; m1 = 0.1) of 1.3348 ± 0.0009 and a refractive index ([2]; m1 = 0.15) of 1.3363 ± 0.0009. It also gave a refractive index ([2]; m1 = 0.2) of 1.3382 ± 0.0009, a refractive index ([2]; m1 = 0.25) of 1.3393 ± 0.0009 and a refractive index ([2]; m1 = 0.3) of 1.3409 ± 0.0009. The refractive index ([2]; m1 = 0.35) was 1.3419 ± 0.0009 and the refractive index ([2]; m1 = 0.4) was 1.3431 ± 0.0009.

With OC[C@@H](O)[C@H](O)[C@@H](O)CO [xylitol] + O the mass density ([1]; m1 = 0.1) was 1002 ± 1.1 kg/m3, the mass density ([1]; m1 = 0.2) was 1006.92 ± 1.1 kg/m3 and the mass density ([1]; m1 = 0.3) was 1011.76 ± 1.1 kg/m3. For the same molecule, the mass density ([1]; m1 = 0.5) was 1020.96 ± 1.1 kg/m3, the mass density ([1]; m1 = 0.7) was 1029.87 ± 1.1 kg/m3 and the mass density ([1]; m1 = 0.9) was 1038.33 ± 1.1 kg/m3. It also gave a refractive index ([2]; m1 = 0.1) of 1.3341 ± 0.0009, a refractive index ([2]; m1 = 0.2) of 1.3361 ± 0.0009 and a refractive index ([2]; m1 = 0.3) of 1.3382 ± 0.0009. It also gave a refractive index ([2]; m1 = 0.5) of 1.3423 ± 0.0009, a refractive index ([2]; m1 = 0.7) of 1.346 ± 0.0009 and a refractive index ([2]; m1 = 0.9) of 1.3494 ± 0.0009.
